Numbered stars: 1 amine (or outer) side, 2 acyl side, 3 side chain; on linkers, the order of the positions; unused ones are H or OH. Bridge positions count the residues as written; N and C are the ends. Square brackets hold non-standard residues; d marks the D form. Peptide text beside a SMILES is read from it. * marks the point of attachment. X45 = CNS(=O)(=O)c1cccc(-c2ccc(C[C@H](N[*:1])C(=O)[*:2])cc2)c1; Bip(4'-COOH) = N[C@@H](Cc1ccc(-c2ccc(C(=O)O)cc2)cc1)C(=O)O; Bip(4'-NHAc) = CC(=O)Nc1ccc(-c2ccc(C[C@H](N)C(=O)O)cc2)cc1; X38 = O=C([C@H](CCCn1cc(-c2ccccc2)nn1)N[*:1])[*:2]; Phe(3-CF3) = N[C@@H](Cc1cccc(C(F)(F)F)c1)C(=O)O; Ala(morpholin-4-yl) = N[C@@H](CN1CCOCC1)C(=O)O; Phe(4-COOH) = N[C@@H](Cc1ccc(C(=O)O)cc1)C(=O)O; Bip = N[C@@H](Cc1ccc(-c2ccccc2)cc1)C(=O)O; Abu(3R-NH2) = C[C@@H](N)[C@H](N)C(=O)O; Phe(3-Me) = Cc1cccc(C[C@H](N)C(=O)O)c1; hPhe = N[C@@H](CCc1ccccc1)C(=O)O; Cha = N[C@@H](CC1CCCCC1)C(=O)O; Suc = O=C(CCC(=O)[*:2])[*:1]; Carboxymethyl = O=C(O)C*; NMeA = CN[C@@H](C)C(=O)O; Nle = CCCC[C@H](N)C(=O)O; Orn = NCCC[C@H](N)C(=O)O; Dab = NCC[C@H](N)C(=O)O; Dap = NC[C@H](N)C(=O)O
Each compound was assayed against T1, Alexa fluor-647 labeled human PD-L1-Ig binding to Jurkat cell line over-expressing human PD-1 (Homo sapiens, UniProt Q15116) (assay: Jurkat-PD-1 Cell Binding High-Content Screening Assay (CBA): Method 3 (Alexa fluor-647 labeled PD-L1-Ig)). Conditions: Jurkat-PD-1 cells, Alexa fluor-647 labeled PD-L1-Ig 177 nM; head μM; read-out: CBA Method 3 μM.
T1 construct: expressed in transfected cells; host or cells: Jurkat
T1 sequence (Q15116 25-288): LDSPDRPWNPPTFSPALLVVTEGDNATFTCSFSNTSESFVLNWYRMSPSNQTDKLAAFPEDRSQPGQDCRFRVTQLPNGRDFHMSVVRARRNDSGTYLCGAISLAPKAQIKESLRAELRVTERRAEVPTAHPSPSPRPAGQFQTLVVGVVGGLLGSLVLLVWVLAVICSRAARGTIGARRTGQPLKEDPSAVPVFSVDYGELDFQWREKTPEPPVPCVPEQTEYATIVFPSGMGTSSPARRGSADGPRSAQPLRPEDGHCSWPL
Method in brief: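 Readout by high-content imaging of PFA-fixed, Hoechst-stained cells after 1 h with 177 nM (final) Alexa fluor-647 PD-L1-Ig. Compound was added first to hPD-1 Jurkat cells in RPMI plus 10% FCS for 2 h at 37 °C.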

| IC50 [µM] | SMILES |
| --- | --- |
| 0.14 | CC(C)C[C@H]1NC(=O)[C@H](C)N(C)C(=O)[C@H](Cc2ccc(C(=O)O)cc2)NC(=O)[C@H](Cc2ccc(-c3ccccc3)cc2)NC(=O)[C@H](CCc2ccccc2)NC(=O)[C@H](Cc2cccc(C(F)(F)F)c2)NC(=O)[C@H](CC(=O)O)NC(=O)[C@H](Cc2ccc(C(=O)O)cc2)NC(=O)[C@H](CN2CCOCC2)NC(=O)CSC[C@@H](C(=O)N[C@@H](CCN)C(N)=O)NC(=O)[C@H](CNC(=O)CCC(=O)O)NC(=O)[C@H](C(C)C)NC(=O)[C@H](CC2CCCCC2)NC(=O)[C@H](CCN)NC1=O [Example 5210] ({CH2CO}-[Ala(morpholin-4-yl)][Phe(4-COOH)]D[Phe(3-CF3)][hPhe][Bip][Phe(4-COOH)][NMeA][dL][Dab][Cha]V[Dap](Suc)C[Dab]-NH2; thioether N-14) |
| 0.1 | CC(C)C[C@H]1NC(=O)[C@H](C)N(C)C(=O)[C@H](CCC(N)=O)NC(=O)[C@H](Cc2ccc(-c3ccccc3)cc2)NC(=O)[C@H](CCc2ccccc2)NC(=O)[C@H](Cc2cccc(C(F)(F)F)c2)NC(=O)[C@H](CC(=O)O)NC(=O)[C@H](Cc2ccc(OCC(=O)O)cc2)NC(=O)[C@H]([C@@H](C)N)NC(=O)CSC[C@@H](C(=O)N[C@@H](CCN)C(N)=O)NC(=O)[C@H](CCCN)NC(=O)[C@H](C(C)C)NC(=O)[C@H](CC2CCCCC2)NC(=O)[C@H](CCN)NC1=O [Example 5219] ({CH2CO}-[Abu(3R-NH2)]Y(Carboxymethyl)D[Phe(3-CF3)][hPhe][Bip]Q[NMeA][dL][Dab][Cha]V[Orn]C[Dab]-NH2; thioether N-14) |
| 0.26 | Cc1cccc(C[C@@H]2NC(=O)[C@H](CC(=O)O)NC(=O)[C@H](Cc3ccc(OCC(=O)O)cc3)NC(=O)[C@H](CN3CCOCC3)NC(=O)CSC[C@@H](C(=O)N[C@@H](CCN)C(N)=O)NC(=O)[C@H](CCCN)NC(=O)[C@H](C(C)C)NC(=O)[C@H](CC3CCCCC3)NC(=O)[C@H](CCN)NC(=O)[C@@H](CC(C)C)NC(=O)[C@H](C)N(C)C(=O)[C@H](CCC(N)=O)NC(=O)[C@H](Cc3ccc(-c4ccccc4)cc3)NC(=O)[C@H](CCc3ccccc3)NC2=O)c1 [Example 5217] ({CH2CO}-[Ala(morpholin-4-yl)]Y(Carboxymethyl)D[Phe(3-Me)][hPhe][Bip]Q[NMeA][dL][Dab][Cha]V[Orn]C[Dab]-NH2; thioether N-14) |
| 0.01 | Cc1cccc(C[C@@H]2NC(=O)[C@H](CC(=O)O)NC(=O)[C@H](Cc3ccc(C(=O)O)cc3)NC(=O)[C@H](CN3CCOCC3)NC(=O)CSC[C@@H](C(=O)N[C@@H](CCN)C(N)=O)NC(=O)[C@H](CCC(=O)O)NC(=O)[C@H](C(C)C)NC(=O)[C@H](CC3CCCCC3)NC(=O)[C@H](CCN)NC(=O)[C@@H](CC(C)C)NC(=O)[C@H](C)N(C)C(=O)[C@H](Cc3ccc(C(=O)O)cc3)NC(=O)[C@H](Cc3ccc(-c4ccccc4)cc3)NC(=O)[C@H](Cc3ccc(C(=O)O)cc3)NC2=O)c1 [Example 5259] ({CH2CO}-[Ala(morpholin-4-yl)][Phe(4-COOH)]D[Phe(3-Me)][Phe(4-COOH)][Bip][Phe(4-COOH)][NMeA][dL][Dab][Cha]VEC[Dab]-NH2; thioether N-14) |

Same assay, conditions: Jurkat-PD-1 cells, Alexa fluor-647 labeled PD-L1-Ig 177 nM; nM; read-out: CBA Method 3

| IC50 [µM] | SMILES |
| --- | --- |
| 0.0073 | CNS(=O)(=O)c1cccc(-c2ccc(C[C@@H]3NC(=O)[C@H](Cc4cccc(C)c4)NC(=O)[C@H](CC(=O)O)NC(=O)[C@H](Cc4ccc(OCC(=O)O)cc4)NC(=O)[C@H](CN4CCOCC4)NC(=O)CSC[C@@H](C(=O)N[C@@H](CCN)C(N)=O)NC(=O)[C@H](CCCN)NC(=O)[C@H](C(C)C)NC(=O)[C@H](CC4CCCCC4)NC(=O)[C@H](CCN)NC(=O)[C@@H](CC(C)C)NC(=O)[C@H](C)N(C)C(=O)[C@H](CCC(N)=O)NC(=O)[C@H](Cc4ccc(-c5ccccc5)cc4)NC3=O)cc2)c1 [Example 5108] ({CH2CO}-[Ala(morpholin-4-yl)]Y(Carboxymethyl)D[Phe(3-Me)][X45][Bip]Q[NMeA][dL][Dab][Cha]V[Orn]C[Dab]-NH2; thioether N-14) |
| 0.001 | CCCC[C@@H]1NC(=O)CSC[C@@H](C(=O)N[C@@H](CCN)C(N)=O)NC(=O)[C@H](CCCN)NC(=O)[C@H](C(C)C)NC(=O)[C@H](CC2CCCCC2)NC(=O)[C@H](CCN)NC(=O)[C@@H](CC(C)C)NC(=O)[C@H](C)N(C)C(=O)[C@H](CCC(N)=O)NC(=O)[C@H](Cc2ccc(-c3ccccc3)cc2)NC(=O)[C@H](Cc2ccc(-c3ccc(C(=O)O)cc3)cc2)NC(=O)[C@H](Cc2cccc(C(F)(F)F)c2)NC(=O)[C@H](CC(=O)O)NC(=O)[C@H](Cc2ccc(C(=O)O)cc2)NC1=O [Example 5166] ({CH2CO}-[Nle][Phe(4-COOH)]D[Phe(3-CF3)][Bip(4'-COOH)][Bip]Q[NMeA][dL][Dab][Cha]V[Orn]C[Dab]-NH2; thioether N-14) |
| 0.0044 | Cc1cccc(C[C@@H]2NC(=O)[C@H](CC(=O)O)NC(=O)[C@H](Cc3ccc(OCC(=O)O)cc3)NC(=O)[C@H](C)NC(=O)CSC[C@@H](C(=O)N[C@@H](CCN)C(N)=O)NC(=O)[C@H](CCC(=O)O)NC(=O)[C@H](C(C)C)NC(=O)[C@H](CC3CCCCC3)NC(=O)[C@H](CCN)NC(=O)[C@@H](CC(C)C)NC(=O)[C@H](C)N(C)C(=O)[C@H](Cc3ccc(C(=O)O)cc3)NC(=O)[C@H](Cc3ccc(-c4ccccc4)cc3)NC(=O)[C@H](Cc3ccc(C(=O)O)cc3)NC2=O)c1 [Example 5137] ({CH2CO}-AY(Carboxymethyl)D[Phe(3-Me)][Phe(4-COOH)][Bip][Phe(4-COOH)][NMeA][dL][Dab][Cha]VEC[Dab]-NH2; thioether N-14) |
| 0.0016 | CC(=O)Nc1ccc(-c2ccc(C[C@@H]3NC(=O)[C@H](Cc4cccc(C)c4)NC(=O)[C@H](CC(=O)O)NC(=O)[C@H](CCCn4cc(-c5ccccc5)nn4)NC(=O)[C@H](CN4CCOCC4)NC(=O)CSC[C@@H](C(=O)N[C@@H](CCN)C(N)=O)NC(=O)[C@H](CCC(N)=O)NC(=O)[C@H](C(C)C)NC(=O)[C@H](CC4CCCCC4)NC(=O)[C@H](CCN)NC(=O)[C@@H](CC(C)C)NC(=O)[C@H](C)N(C)C(=O)[C@H](Cc4ccc(C(=O)O)cc4)NC(=O)[C@H](Cc4ccc(-c5ccccc5)cc4)NC3=O)cc2)cc1 [Example 5295] ({CH2CO}-[Ala(morpholin-4-yl)][X38]D[Phe(3-Me)][Bip(4'-NHAc)][Bip][Phe(4-COOH)][NMeA][dL][Dab][Cha]VQC[Dab]-NH2; thioether N-14) |
| 0.0062 | Cc1cccc(C[C@@H]2NC(=O)[C@H](CC(=O)O)NC(=O)[C@H](Cc3ccc(C(=O)O)cc3)NC(=O)[C@H](CC3CCCCC3)NC(=O)CSC[C@@H](C(=O)N[C@@H](CCN)C(N)=O)NC(=O)[C@H](CCC(=O)O)NC(=O)[C@H](C(C)C)NC(=O)[C@H](CC3CCCCC3)NC(=O)[C@H](CCN)NC(=O)[C@@H](CC(C)C)NC(=O)[C@H](C)N(C)C(=O)[C@H](Cc3ccc(C(=O)O)cc3)NC(=O)[C@H](Cc3ccc(-c4ccccc4)cc3)NC(=O)[C@H](Cc3ccc(OCC(=O)O)cc3)NC2=O)c1 [Example 5201] ({CH2CO}-[Cha][Phe(4-COOH)]D[Phe(3-Me)]Y(Carboxymethyl)[Bip][Phe(4-COOH)][NMeA][dL][Dab][Cha]VEC[Dab]-NH2; thioether N-14) |

From patent US20240409585A1, “MACROCYCLIC IMMUNOMODULATORS” (priority 2021, published 2024)
